Reference: ChEMBL document CHEMBL1151608, “Unusual cytotoxicities of 5-(acylethynyl)-1-(2-hydroxyethoxy)methyluracils” (Bioorg Med Chem Lett, 1996)
pIC50: −log10 of the molar value.

What was measured:
Format in all cases: functional, cell-based
CCRF-CEM = experiment: In vitro cytotoxic effect of compound was measured against CCRF-CEM human lymphoblastoid cells.
HT-29 = experiment: In vitro cytotoxic effect of compound was measured against HT-29 tumor cells.; details: Homo sapiens
L1210 = experiment: In vitro cytotoxic effect of compound was measured against L1210/0 tumor cells in mouse

Row | SMILES | pIC50 (CCRF-CEM) | pIC50 (HT-29) | pIC50 (L1210)
1 | Cc1ccccc1C(=O)C#Cc1cn(COCCO)c(=O)[nH]c1=O | 6.05 | 4.60 | 5.66
2 | COc1ccc(C(=O)C#Cc2cn(COCCO)c(=O)[nH]c2=O)cc1 | 5.80 | 4.70 | 5.82
3 | Cc1ccc(C(=O)C#Cc2cn(COCCO)c(=O)[nH]c2=O)cc1 | 6.15 | 5.10 | 6.05
4 | Cc1cccc(C(=O)C#Cc2cn(COCCO)c(=O)[nH]c2=O)c1 | 6.22 | 4.85 | 6.15
